Data published in patent US20150118229A1, “JAK1 SELECTIVE INHIBITOR AND USES THEREOF” (ABBVIE INC., priority 2013, published 2015).
Where “and” joins values, the source holds several entries; their conditions need not be identical. Equal values may be shown once. Entries after “also recorded” stand apart in the source; their conditions may differ. Read-outs that look alike come from different tables or passages of the source.

Assays:
[1] = tested on: adjuvant-induced arthritis (paw swelling, bone erosion); experiment: Adjuvant-induced arthritis (AIA) in Lewis rats; type: in vivo
Method: The inflammation appears in the contra-lateral (left) hind paw seven days after the initial immunization. […] Rats are lightly anesthetized with an inhalant anesthetic (isoflurane) and the contra-lateral (left) hind paw is dipped into the plethysmograph and the paw volume is recorded. The rats are scored every other day up to day 17 after immunization. […] Bone volume and density is determined for a 360 μm (200 slice) vertical section encompassing the tarsal section of the paw. […] Drug exposure is determined in the plasma using LC/MS.

[2] = tested on: peripheral NK cell counts; experiment: Peripheral NK cell counts in healthy rats; type: in vivo, rat
Excerpt: The correlation of this effect with ex vivo cytokine signaling inhibition is shown in the right panel of FIG. 6. These measurements correlated well, confirming the Jak dependency of the NK cell count endpoint.
To establish the relationship between changes in NK cell counts and nonclinical efficacy, the changes in NK cell counts were compared with decreases in rat AIA disease activity per unit exposure.

[3] = tested on: EPO dependent reticulocyte deployment; experiment: Reticulocyte deployment assay (i.v. EPO) in rats; type: in vivo; details: over the exposure range efficacious in rat AIA
Excerpt: Reticulocytes were deployed with an i.v. EPO injection, which produced a modest but very precise reticulocytosis.
In contrast, PBS control has negligible (if any) effect. This is consistent with the fact that EPO signals through Jak2 to stimulate reticulocyte development.

[4] = Metabolic stability in hepatocytes, monkey; type: in vitro ADME; details: read-out: intrinsic clearance in hepatocytes (converted)
CYP3A4 = CYP3A4 (Homo sapiens, UniProt P08684); experiment: Metabolism by recombinant CYP3A4; type: in vitro ADME
CYP3A4, sequence (P08684 whole entry): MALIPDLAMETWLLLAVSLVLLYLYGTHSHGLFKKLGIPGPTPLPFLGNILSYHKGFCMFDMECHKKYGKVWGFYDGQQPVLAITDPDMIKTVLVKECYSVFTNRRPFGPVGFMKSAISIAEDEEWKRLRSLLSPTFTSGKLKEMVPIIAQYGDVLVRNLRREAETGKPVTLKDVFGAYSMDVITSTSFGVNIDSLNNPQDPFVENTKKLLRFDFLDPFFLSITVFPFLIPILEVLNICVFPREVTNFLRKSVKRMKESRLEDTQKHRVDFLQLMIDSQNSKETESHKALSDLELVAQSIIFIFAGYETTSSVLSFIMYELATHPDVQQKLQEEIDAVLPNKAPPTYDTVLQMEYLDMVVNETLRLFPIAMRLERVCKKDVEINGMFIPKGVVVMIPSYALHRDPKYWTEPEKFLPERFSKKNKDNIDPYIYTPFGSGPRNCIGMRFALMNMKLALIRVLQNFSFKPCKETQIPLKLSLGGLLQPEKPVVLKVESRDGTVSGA
Excerpt: (§1) In vitro biotransformation of Compound 1 primarily occurred at imidazolpyrrolopyrazinyl ethyl pyrrolidine moiety.

CYP3A5 = CYP3A5 (Homo sapiens, UniProt P20815); experiment: Metabolism by recombinant CYP3A5; type: in vitro ADME
CYP3A5, sequence (P20815 whole entry): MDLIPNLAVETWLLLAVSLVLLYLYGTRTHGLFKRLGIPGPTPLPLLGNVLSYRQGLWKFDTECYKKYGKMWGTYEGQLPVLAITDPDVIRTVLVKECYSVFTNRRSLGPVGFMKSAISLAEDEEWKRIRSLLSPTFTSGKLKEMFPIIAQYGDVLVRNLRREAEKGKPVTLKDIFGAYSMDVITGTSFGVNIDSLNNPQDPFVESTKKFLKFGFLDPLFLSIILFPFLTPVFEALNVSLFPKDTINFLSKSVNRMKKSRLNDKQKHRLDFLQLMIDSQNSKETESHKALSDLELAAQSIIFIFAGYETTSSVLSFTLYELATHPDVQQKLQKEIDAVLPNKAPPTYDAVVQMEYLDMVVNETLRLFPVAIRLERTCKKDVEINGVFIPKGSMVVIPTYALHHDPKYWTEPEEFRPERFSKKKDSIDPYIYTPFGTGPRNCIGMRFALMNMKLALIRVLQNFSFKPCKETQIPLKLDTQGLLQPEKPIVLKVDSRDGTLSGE
Excerpt: as §1

[5] = 9-month (39 weeks) GLP chronic oral toxicity study in dogs; details: both sexes, beagle, in vivo, dog, 9 months (39 weeks)
Method: The GLP-compliant studies each included 4 weeks of oral dosing followed by a 4-week recovery period in both rats and dogs followed by GLP-compliant chronic toxicity studies in rats (6 months of oral dosing) and dogs (9 months of oral dosing).
A subsequent GLP-compliant 9-month chronic dog study was conducted in beagle dogs at dosages of 0, 0.1, 0.5, and 1.5 mg/kg/day by daily oral capsule administration. No Compound 1-related changes in food consumption or body weights were observed during the dosing period.

[6] = Definitive embryofetal development toxicity study in rats; type: in vivo; details: rat
Excerpt: One additional group of 25 time-mated females served as the control and received the vehicle, 0.2% hydroxypropyl methylcellulose (HPMC, high viscosity) in deionized water.

[7] = Human PK, multiple ascending dose Study M13-845 Substudy 1; type: in vivo; details: for AUC: human, in vivo, oral
OATP1B3 = OATP1B3 (Homo sapiens, UniProt Q9NPD5); experiment: Transporter inhibition, OATP1B3; details: up to 30 μM
OATP1B3, sequence (Q9NPD5 whole entry): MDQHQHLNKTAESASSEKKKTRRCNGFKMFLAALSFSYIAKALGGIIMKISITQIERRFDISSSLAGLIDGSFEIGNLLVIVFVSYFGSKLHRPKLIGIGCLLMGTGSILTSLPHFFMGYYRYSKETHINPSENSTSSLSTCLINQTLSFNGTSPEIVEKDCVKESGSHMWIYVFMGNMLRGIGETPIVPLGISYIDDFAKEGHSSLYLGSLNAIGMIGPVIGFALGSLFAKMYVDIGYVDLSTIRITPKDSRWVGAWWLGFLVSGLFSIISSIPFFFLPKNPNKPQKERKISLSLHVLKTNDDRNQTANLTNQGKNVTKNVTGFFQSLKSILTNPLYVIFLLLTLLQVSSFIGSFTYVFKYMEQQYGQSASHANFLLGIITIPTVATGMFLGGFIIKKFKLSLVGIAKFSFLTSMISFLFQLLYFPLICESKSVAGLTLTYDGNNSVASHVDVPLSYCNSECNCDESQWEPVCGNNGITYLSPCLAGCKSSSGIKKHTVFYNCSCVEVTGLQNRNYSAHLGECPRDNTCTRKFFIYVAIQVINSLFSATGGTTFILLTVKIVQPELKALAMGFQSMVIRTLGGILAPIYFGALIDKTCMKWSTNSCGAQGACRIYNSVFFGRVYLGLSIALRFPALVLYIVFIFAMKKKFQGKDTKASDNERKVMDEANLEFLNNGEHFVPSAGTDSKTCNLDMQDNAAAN

CYP2C19 = CYP2C19 (Homo sapiens, UniProt P33261); experiment: CYP inhibition in human liver microsomes, CYP2C19
CYP2C19, sequence (P33261 whole entry): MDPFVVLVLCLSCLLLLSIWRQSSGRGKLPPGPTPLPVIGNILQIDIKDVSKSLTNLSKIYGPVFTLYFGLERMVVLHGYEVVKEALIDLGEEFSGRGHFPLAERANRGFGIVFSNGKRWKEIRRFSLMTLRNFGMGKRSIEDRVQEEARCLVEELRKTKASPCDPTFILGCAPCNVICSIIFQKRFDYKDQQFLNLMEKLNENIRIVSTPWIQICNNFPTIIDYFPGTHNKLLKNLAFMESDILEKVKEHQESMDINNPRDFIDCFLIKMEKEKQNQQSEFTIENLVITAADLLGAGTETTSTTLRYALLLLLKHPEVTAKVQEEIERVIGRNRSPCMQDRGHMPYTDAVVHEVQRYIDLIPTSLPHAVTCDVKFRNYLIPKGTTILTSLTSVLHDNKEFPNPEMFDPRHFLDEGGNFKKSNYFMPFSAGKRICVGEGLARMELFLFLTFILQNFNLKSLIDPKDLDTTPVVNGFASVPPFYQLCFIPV

[8] = 12 mg BID, Day 14, mean (% CV), Western subjects, listed as Comp. 1
[9] = 24 mg BID, Day 14, mean (% CV), Western subjects, listed as Comp. 1

In the case of CC[C@@H]1CN(C(=O)NCC(F)(F)F)C[C@@H]1c1cnc2cnc3[nH]ccc3n12 [Compound 1, (3S,4R)-3-ethyl-4-(3H-imidazo[1,2-a]pyrrolo[2,3-e]pyrazin-8-yl)-N-(2,2,2-trifluoroethyl)pyrrolidine-1-carboxamide], the “protection of bone erosion (tarsal bone volume, micro CT)” value ([1]; 3 mg/kg bid) is reported as “complete protection”, the “efficacious exposure (AUC60), PK/PD modeling” value ([1]; AIA rats, about 60% inhibition of paw swelling) is reported as 85 ng·h/mL and the “AUC60 (60% inhibition of paw swelling), total AUC0-12” value ([1]; oral bid, last day of study) is reported as 85 ± 20 ng·h/mL and 85 ng·h/mL. For the same molecule, the “AUC60, fraction unbound AUC0-12” value ([1]; oral bid, last day of study) was 34 ± 7 ng·h/mL, the “Paw Swelling (exposure)” value ([1]; rat AIA) was 62 ng·h/mL and the “inhibition of Paw Swelling reached at about the same level of reticulocyte inhibition” value ([1]; rat AIA vs reticulocyte deployment) was “about 80%”. For the same molecule, the “effects on peripheral NK cell counts” value ([2]; over the efficacious exposure range, rat) was “less than that of Tofacitinib”, the “predicted maximum decrease of NK cell counts” value ([2]; over the intended clinical exposure range, on the basis of rat models) was “approximately 40%” and the “NK Counts (exposure)” value ([2]; rat) was 290 ng·h/mL. For the same molecule, the “NK cell count decrease at about 60% efficacy (inhibition of paw swelling)” value ([2]; rat) was about 25%, the “effects on reticulocyte deployment” value [3] was “less than that of Tofacitinib” and the CLint scaled at 1 μM [4] was 6.88 mL/min/kg. The “percentage of parent remaining” value (CYP3A4) was 36.0%, the “percentage of parent remaining” value (CYP3A5) was 80.6% and the NOAEL at 9 months [5] was 1.5 mg/kg/day. The “maternal clinical observations, body weights, food consumption, macroscopic examinations” value ([6]; GD 6 to 17) was “No Compound 1-related effects”, the NOEL ([6]; oral, GD 6-17) was “NOEL < 5 mg/kg/day” and the AUC12/dose ([7]; 3 mg BID, Day 1) was 25.1 ng·h/mL/mg. For the same molecule, the C12/dose ([7]; 3 mg BID, Day 1) was 0.32 ng/mL/mg, the Cmax/dose ([7]; 3 mg BID, Day 1) was 6.33 ng/mL/mg and the AUC12/dose ([7]; 3 mg BID, Day 14) was 26.1 ng·h/mL/mg. The Cmax/dose ([7]; 3 mg BID, Day 14) was 6.16 ng/mL/mg, the “Fe %, unchanged drug recovered in urine” value ([7]; 3 mg BID, Day 14) was 18.8% and the AUC12/dose ([7]; 6 mg BID, Day 1) was 22.3 ng·h/mL/mg. It also gave a C12/dose ([7]; 6 mg BID, Day 1) of 0.30 ng/mL/mg, a Cmax/dose ([7]; 6 mg BID, Day 1) of 4.91 ng/mL/mg and an AUC12/dose ([7]; 6 mg BID, Day 14) of 23.1 ng·h/mL/mg. The Cmax/dose ([7]; 6 mg BID, Day 14) was 4.80 ng/mL/mg, the “Fe %, unchanged drug recovered in urine” value ([7]; 6 mg BID, Day 14) was 18.7% and the AUC12/dose ([7]; 12 mg BID, Day 1) was 22.5 ng·h/mL/mg. For the same molecule, the C12/dose ([7]; 12 mg BID, Day 1) was 0.33 ng/mL/mg, the Cmax/dose ([7]; 12 mg BID, Day 1) was 4.84 ng/mL/mg and the “Fe %, unchanged drug recovered in urine” value ([7]; 12 mg BID, Day 14) was 21.4%. The AUC12/dose [7, 8] was 22.6 ng·h/mL/mg, the Cmax/dose [7, 8] was 4.80 ng/mL/mg and the AUC12/dose ([7]; 24 mg BID, Day 1) was 22.5 ng·h/mL/mg. For the same molecule, the C12/dose ([7]; 24 mg BID, Day 1) was 0.32 ng/mL/mg, the Cmax/dose ([7]; 24 mg BID, Day 1) was 5.25 ng/mL/mg and the “Fe %, unchanged drug recovered in urine” value ([7]; 24 mg BID, Day 14) was 18.7%. The AUC12/dose [7, 9] was 22.0 ng·h/mL/mg, the Cmax/dose [7, 9] was 4.95 ng/mL/mg and the AUC ([7]; 3 mg, 3 mg BID, Day 1, mean, read-out: AUC12) was 75.3 ng·h/mL. The AUC ([7]; 3 mg, 3 mg BID, Day 14, mean, read-out: AUC12) was 78.3 ng·h/mL, the AUC ([7]; 6 mg, 6 mg BID, Day 14, mean, read-out: AUC12) was 138 ng·h/mL and the AUC ([7]; 6 mg, AUC12, 6 mg BID, Day 1, mean, heading: AUC12) was 134 ng·h/mL. The AUC ([7]; 12 mg, 12 mg BID, Day 1, mean, read-out: AUC12) was 270 ng·h/mL, the AUC ([7]; 12 mg, 12 mg BID, Day 14, mean, read-out: AUC12) was 271 ng·h/mL and the AUC ([7]; 24 mg, 24 mg BID, Day 1, mean, read-out: AUC12) was 540 ng·h/mL. The AUC ([7]; 24 mg, 24 mg BID, Day 14, mean, read-out: AUC12) was 529 ng·h/mL, the “inhibition of OATP1B3 uptake” value (OATP1B3) was “No significant inhibition” and the “time-dependent inhibition of CYP2C19” value (CYP2C19; human liver microsomes) was “No obvious time-dependent inhibition”. For the same molecule, the “inhibition of CYP2C19” value (CYP2C19; up to 30 μM) was “did not inhibit; also recorded: not an inhibitor”.
